The test system of assay [1] is S6RP serine-240/244 phosphorylation. Nature of the assay: In vitro phospho-S6 cellular assay. The assay is classed as cell-based. Conditions: Homo sapiens; HEK293T/17 cells, 2 hours; read-out: pS6 inhibition value (IC50), activity level. The source says: Activation of mTOR signaling results in phosphorylation of several downstream targets. In cells, mTOR exists in two different protein complexes. The mTOR Complex-1 (mTORC1) phosphorylates and activates S6 Kinase 1 (S6K1) and S6 Kinase 2 (S6K2) (also known as p70S6K) which then phosphorylate S6 Ribosomal Protein (S6RP) (also known as RPS6)3. S6RP is phosphorylated on serine 235, serine 236, serine 240 and serine 244 by both pS6K1 and pS6K2. The mTOR Complex-2 (mTORC2) phosphorylates AKT on serine 473 which activates the AKT signaling pathway.
The assay measures a test compound's inhibition of S6RP serine-240/244 phosphorylation and inhibition of Akt serine-473 phosphorylation in human embryonic kidney derived HEK293T/17 cells (ATCC CRL-11268).
The HEK293T/17 cell line is maintained in DMEM media (Invitrogen catalogue number 41965-039) supplemented with 10% FCS at 37° C. in a 5% CO2 humidified incubator.
Cells are seeded in 96-well plates at 40,000 cells/well (pS6RP S240/244 assay) or 80,000 cells/well (pAkt S473 assay) in 90 μl growth media (DMEM, 2% FCS). Plates are incubated for 1 hour in a humidified incubator to allow the cells to adhere. Cells are treated with 8 concentrations of test compounds or DMSO alone for controls (final DMSO concentration 0.1%) and incubated at 37° C. for 2 hours. Then 20 μl of 5× concentrated lysis buffer (750 mM NaCl, 100 mM Tris pH7.4, 5 mM ADTA, 5 mM EGTA, 5% Triton X-100) is added, plates are sealed and incubated for 15 minutes at 4° C. with gentle shaking. After cell lysis, 25 μl cell lysate is transferred to a MesoScale plate coated with an antibody to pS6RP Ser240/244 (MesoScale Discovery K150DGD-3) or an antibody to pAkt Ser 473 (MesoScale Discovery K151DGD-3). Plates have been blocked before by incubation with 150 μl MesoScale Discovery Blocking Solution-A for 1 hour at room temperature followed by washing with 150 μl 1× Tris wash buffer per well. After the transfer of the cell lysate to the MSD plate, the pS6RP (or pAkt) protein is captured on the coated antibody by incubation at room temperature for 1 hour with gentle shaking. After the capture step the plate is washed three times with 150 μl of 1× Tris wash buffer per well. Then 25 μl detection antibody conjugated with a Sulfo-Tag is added and incubated for 1 hour at room temperature with gentle shaking. Subsequently the antibody solution is removed and the plate is washed 3 times with 150 μl 1× Tris wash buffer per well and 150 μl Read buffer is added. The plates are analysed on a MSD 2400 Plate Reader (MesoScale Discovery). Data analysis is performed using nonlinear regression for a sigmoidal dose-response with a variable slope.

In another assay the target is mTOR (Homo sapiens, UniProt P42345). Kind of assay: biochemical.
Assay [2] addresses DNA-dependent protein kinase (DNA-PK) (Homo sapiens, UniProt P78527). Kind of assay: biochemical.

SMILES strings stand for the structures.

Chain of DNA-dependent protein kinase (DNA-PK) (P78527 whole entry): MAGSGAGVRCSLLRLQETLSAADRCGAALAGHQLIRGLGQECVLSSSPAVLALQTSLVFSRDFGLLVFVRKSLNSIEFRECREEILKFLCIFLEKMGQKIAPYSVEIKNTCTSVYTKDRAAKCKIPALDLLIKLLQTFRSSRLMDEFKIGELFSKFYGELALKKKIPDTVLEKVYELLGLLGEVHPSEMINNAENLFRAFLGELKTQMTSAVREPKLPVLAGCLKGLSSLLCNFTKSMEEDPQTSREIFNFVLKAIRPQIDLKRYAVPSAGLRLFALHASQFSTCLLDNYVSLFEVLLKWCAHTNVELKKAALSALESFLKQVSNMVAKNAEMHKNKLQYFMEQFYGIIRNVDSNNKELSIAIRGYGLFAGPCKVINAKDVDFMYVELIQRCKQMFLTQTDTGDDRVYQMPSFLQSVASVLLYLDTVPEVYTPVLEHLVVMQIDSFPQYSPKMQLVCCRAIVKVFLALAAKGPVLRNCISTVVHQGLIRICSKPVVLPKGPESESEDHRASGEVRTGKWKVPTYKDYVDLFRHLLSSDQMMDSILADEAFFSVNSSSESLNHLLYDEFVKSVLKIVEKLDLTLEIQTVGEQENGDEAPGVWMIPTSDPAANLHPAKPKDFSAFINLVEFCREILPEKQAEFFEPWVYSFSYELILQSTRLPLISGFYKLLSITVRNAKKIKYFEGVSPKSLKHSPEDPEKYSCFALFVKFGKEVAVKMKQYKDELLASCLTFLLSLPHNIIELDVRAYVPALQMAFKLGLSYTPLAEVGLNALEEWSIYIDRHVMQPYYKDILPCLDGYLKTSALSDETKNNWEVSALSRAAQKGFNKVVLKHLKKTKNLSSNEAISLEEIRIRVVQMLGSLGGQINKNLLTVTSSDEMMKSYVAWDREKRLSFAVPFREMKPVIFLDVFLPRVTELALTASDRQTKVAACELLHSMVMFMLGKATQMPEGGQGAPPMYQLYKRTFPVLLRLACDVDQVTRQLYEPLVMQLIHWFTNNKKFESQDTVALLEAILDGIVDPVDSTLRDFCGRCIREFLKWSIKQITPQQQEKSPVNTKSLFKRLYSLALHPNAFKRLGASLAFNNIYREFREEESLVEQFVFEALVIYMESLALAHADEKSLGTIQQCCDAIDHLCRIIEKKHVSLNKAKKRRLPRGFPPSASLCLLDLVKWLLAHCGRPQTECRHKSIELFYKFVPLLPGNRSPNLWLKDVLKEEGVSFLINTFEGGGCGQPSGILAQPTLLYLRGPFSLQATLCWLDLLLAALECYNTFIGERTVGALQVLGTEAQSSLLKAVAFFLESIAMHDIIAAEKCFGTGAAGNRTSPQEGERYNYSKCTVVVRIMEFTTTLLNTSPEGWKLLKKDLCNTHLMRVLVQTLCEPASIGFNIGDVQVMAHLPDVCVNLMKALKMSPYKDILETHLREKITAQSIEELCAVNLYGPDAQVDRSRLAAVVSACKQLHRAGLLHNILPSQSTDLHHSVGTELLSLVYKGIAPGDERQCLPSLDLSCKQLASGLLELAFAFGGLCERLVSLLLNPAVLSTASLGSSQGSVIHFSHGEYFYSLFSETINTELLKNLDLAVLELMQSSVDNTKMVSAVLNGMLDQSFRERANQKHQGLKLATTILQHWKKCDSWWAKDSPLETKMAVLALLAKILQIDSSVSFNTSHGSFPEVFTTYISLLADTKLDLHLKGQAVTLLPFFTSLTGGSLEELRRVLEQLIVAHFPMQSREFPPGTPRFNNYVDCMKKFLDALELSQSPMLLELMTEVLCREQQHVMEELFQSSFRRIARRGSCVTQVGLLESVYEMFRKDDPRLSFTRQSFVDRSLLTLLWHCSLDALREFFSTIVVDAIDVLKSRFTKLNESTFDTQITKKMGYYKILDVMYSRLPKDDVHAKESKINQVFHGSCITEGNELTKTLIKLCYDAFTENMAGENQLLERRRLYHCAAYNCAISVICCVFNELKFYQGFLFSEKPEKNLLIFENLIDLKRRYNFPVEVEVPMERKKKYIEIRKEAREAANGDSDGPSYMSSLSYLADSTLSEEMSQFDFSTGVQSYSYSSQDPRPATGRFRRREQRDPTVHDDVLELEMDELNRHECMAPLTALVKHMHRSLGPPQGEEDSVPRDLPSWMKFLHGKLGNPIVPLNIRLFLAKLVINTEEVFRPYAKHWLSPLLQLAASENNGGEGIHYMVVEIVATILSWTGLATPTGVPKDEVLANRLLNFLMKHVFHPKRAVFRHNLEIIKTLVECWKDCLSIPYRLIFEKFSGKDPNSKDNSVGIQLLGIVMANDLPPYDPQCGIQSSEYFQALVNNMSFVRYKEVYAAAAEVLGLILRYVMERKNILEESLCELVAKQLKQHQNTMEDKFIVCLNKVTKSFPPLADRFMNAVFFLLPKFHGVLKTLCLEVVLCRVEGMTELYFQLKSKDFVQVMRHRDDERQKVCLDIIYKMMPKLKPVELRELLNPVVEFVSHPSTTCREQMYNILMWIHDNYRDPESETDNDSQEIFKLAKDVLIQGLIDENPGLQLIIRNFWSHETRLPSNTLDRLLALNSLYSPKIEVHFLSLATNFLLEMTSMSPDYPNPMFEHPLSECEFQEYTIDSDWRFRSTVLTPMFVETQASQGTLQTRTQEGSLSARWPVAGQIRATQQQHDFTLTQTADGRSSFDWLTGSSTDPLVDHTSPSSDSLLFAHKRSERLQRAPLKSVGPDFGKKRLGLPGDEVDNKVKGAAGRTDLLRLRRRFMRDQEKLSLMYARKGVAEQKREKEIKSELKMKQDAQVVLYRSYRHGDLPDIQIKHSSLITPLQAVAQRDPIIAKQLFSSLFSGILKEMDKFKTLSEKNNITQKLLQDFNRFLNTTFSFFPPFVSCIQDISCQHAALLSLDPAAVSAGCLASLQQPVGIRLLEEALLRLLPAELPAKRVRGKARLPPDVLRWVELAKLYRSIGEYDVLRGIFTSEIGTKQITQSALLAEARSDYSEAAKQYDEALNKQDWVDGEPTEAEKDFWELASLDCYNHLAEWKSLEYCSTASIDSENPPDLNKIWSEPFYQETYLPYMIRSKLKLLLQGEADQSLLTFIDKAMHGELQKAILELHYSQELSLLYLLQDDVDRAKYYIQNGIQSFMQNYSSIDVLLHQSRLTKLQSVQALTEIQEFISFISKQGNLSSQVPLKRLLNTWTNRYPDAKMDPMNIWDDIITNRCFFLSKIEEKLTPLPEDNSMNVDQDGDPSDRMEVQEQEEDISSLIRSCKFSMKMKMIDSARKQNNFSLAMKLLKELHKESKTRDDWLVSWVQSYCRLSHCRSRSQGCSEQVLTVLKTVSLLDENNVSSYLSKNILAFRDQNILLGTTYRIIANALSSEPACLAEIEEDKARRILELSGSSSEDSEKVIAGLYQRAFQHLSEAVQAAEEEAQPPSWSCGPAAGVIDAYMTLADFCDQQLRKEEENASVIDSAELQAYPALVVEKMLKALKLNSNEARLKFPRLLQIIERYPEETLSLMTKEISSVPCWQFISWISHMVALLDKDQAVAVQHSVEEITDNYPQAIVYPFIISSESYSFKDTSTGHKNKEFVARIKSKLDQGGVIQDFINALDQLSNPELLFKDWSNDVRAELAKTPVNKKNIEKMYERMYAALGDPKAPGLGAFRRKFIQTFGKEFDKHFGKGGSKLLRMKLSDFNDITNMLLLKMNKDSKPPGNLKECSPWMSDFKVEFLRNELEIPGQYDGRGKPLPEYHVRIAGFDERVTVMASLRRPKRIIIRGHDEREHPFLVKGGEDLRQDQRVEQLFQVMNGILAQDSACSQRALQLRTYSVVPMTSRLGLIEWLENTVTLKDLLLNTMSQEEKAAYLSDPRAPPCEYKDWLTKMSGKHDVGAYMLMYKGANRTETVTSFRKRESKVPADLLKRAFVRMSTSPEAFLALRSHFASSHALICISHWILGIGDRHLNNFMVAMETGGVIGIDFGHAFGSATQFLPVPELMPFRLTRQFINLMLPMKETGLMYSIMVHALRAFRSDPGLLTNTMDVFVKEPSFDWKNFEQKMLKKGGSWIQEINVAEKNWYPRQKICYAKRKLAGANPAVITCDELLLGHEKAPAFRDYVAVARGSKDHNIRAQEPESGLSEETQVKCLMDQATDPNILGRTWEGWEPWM

For `CC1c2c(nc(-c3ccc(NC(=O)NC4CC4)cc3)nc2N2CCOC[C@@H]2C)CS1(=O)=O` (mixture of isomers) [Example 6, 1-cyclopropyl-3-(4-(5-methyl-4-((S)-3-methylmorpholino)-6,6-dioxido-5,7-dihydrothieno[3,4-d]pyrimidin-2-yl)phenyl)urea], the IC50 (in assay [1]; against mTOR) was less than 100 nM in each case.

For the molecule `C[C@H]1COCCN1c1nc(-c2ccc(NC(=O)NC3CC3)cc2)nc2c1CS(=O)(=O)CC2` [Example 4, (S)-1-cyclopropyl-3-(4-(4-(3-methylmorpholino)-6,6-dioxido-7,8-dihydro-5H-thiopyrano[4,3-d]pyrimidin-2-yl)phenyl)urea], the IC50 in assay [1] was 100 to 1000 nM; against mTOR, less than 100 nM; in assay [2] it was greater than 10000 nM.

For `C[C@H]1COCCN1c1nc(-c2ccc(NC(=O)NC3CC3)cc2)nc2c1SCCC2` [Example 8, (S)-1-cyclopropyl-3-(4-(4-(3-methylmorpholino)-7,8-dihydro-6H-thiopyrano[3,2-d]pyrimidin-2-yl)phenyl)urea], the IC50 in assay [1] is less than 100 nM; at mTOR it was less than 100 nM; in assay [2] it was greater than 10000 nM.

On to `CNC(=O)Nc1ccc(-c2nc3c(c(N4CC5CCC(C4)O5)n2)CS(=O)(=O)C3)cc1` [Example 21, 1-(4-(4-(8-oxa-3-azabicyclo[3.2.1]octan-3-yl)-6,6-dioxido-5,7-dihydrothieno[3,4-d]pyrimidin-2-yl)phenyl)-3-methylurea], for which the half-inhibitory concentration (IC50) in assay [1] was 100 to 1000 nM; on mTOR it was less than 100 nM.

As to `O=C(Nc1ccc(-c2nc3c(c(N4CC5CCC(C4)O5)n2)CS(=O)(=O)C3)cc1)NC1CC1` [Example 20, 1-(4-(4-(8-oxa-3-azabicyclo[3.2.1]octan-3-yl)-6,6-dioxido-5,7-dihydrothieno[3,4-d]pyrimidin-2-yl)phenyl)-3-cyclopropylurea], the results for the IC50 (in assay [1]; on mTOR) were 100 to 1000 nM and less than 100 nM, respectively.

Take `C[C@@H]1COCCN1c1nc(-c2ccc(NC(=O)NC3CC3)cc2)nc2c1CS(=O)(=O)C2` [Example 17, (R)-1-cyclopropyl-3-(4-(4-(3-methylmorpholino)-6,6-dioxido-5,7-dihydrothieno[3,4-d]pyrimidin-2-yl)phenyl)urea]: the IC50 in assay [1] is less than 100 nM; against mTOR, 100 to 1000 nM.

As for `C[C@H]1COCCN1c1nc(-c2ccc(NC(=O)Nc3cccnc3)cc2)nc2c1CS(=O)(=O)C2` [Example 36, (S)-1-(4-(4-(3-methylmorpholino)-6,6-dioxido-5,7-dihydrothieno[3,4-d]pyrimidin-2-yl)phenyl)-3-(pyridin-3-yl)urea], the IC50 on mTOR was less than 100 nM; in assay [2], greater than 10000 nM.

On to `CNC(=O)Nc1ccc(-c2nc(N3CCOC[C@@H]3C)c3c(n2)C(C)(C)S(=O)(=O)C3)cc1F` [Example 65, (S)-1-(4-(7,7-dimethyl-4-(3-methylmorpholino)-6,6-dioxido-5,7-dihydrothieno[3,4-d]pyrimidin-2-yl)-2-fluorophenyl)-3-methylurea], for which the results for the half-maximal inhibitory concentration (IC50) (in assay [1]; on mTOR; in assay [2]) were less than 100 nM, 100 to 1000 nM and greater than 10000 nM, respectively.

In the case of `C[C@@H]1c2c(N3CCOC[C@@H]3C)nc(-c3ccc(NC(=O)NC4CC4)cc3)nc2C(C)(C)S1(=O)=O` [Example 82, 1-cyclopropyl-3-(4-((R)-5,7,7-trimethyl-4-((S)-3-methylmorpholino)-6,6-dioxido-5,7-dihydrothieno[3,4-d]pyrimidin-2-yl)phenyl)urea], the IC50 against mTOR was less than 100 nM.

Take `C[C@H]1COCCN1c1nc(-c2ccc(NC(=O)NC3CC3)cc2)nc2c1CSCC2` [Example 3, (S)-1-cyclopropyl-3-(4-(4-(3-methylmorpholino)-7,8-dihydro-5H-thiopyrano[4,3-d]pyrimidin-2-yl)phenyl)urea]: the IC50 (in assay [1]; at mTOR) was less than 100 nM in each case.

`C[C@H]1COCCN1c1nc(-c2ccc(NC(=O)NC3CC3)cc2)nc2c1S(=O)(=O)C(C)(C)C2` [Example 37, (S)-1-cyclopropyl-3-(4-(6,6-dimethyl-4-(3-methylmorpholino)-5,5-dioxido-6,7-dihydrothieno[3,2-d]pyrimidin-2-yl)phenyl)urea]: the IC50 on mTOR was 100 to 1000 nM; in assay [2], greater than 10000 nM.

`CC1c2c(N3CCOCC3)nc(-c3ccc(NC(=O)NCCF)cc3)nc2C(C)(C)S1(=O)=O` (stereo not drawn) [Example 81, 1-(2-fluoroethyl)-3-(4-(5,7,7-trimethyl-4-morpholino-6,6-dioxido-5,7-dihydrothieno[3,4-d]pyrimidin-2-yl)phenyl)urea]: the half-inhibitory concentration (IC50) on mTOR was less than 100 nM.

For the molecule `CC1c2c(nc(-c3ccc(NC(=O)NC4CC4)cc3)nc2N2C3CCC2COC3)CS1(=O)=O` (stereo not drawn) [Example 33, 1-(4-(4-(3-oxa-8-azabicyclo[3.2.1]octan-8-yl)-5-methyl-6,6-dioxido-5,7-dihydrothieno[3,4-d]pyrimidin-2-yl)phenyl)-3-cyclopropylurea], the IC50 (in assay [1]; against mTOR) was less than 100 nM throughout.

For the molecule `CC1c2c(nc(-c3ccc(NC(=O)NC4CC4)cc3)nc2N2CC3CCC(C2)O3)CS1(=O)=O` (stereo not drawn) [Example 34, 1-(4-(4-(8-oxa-3-azabicyclo[3.2.1]octan-3-yl)-5-methyl-6,6-dioxido-5,7-dihydrothieno[3,4-d]pyrimidin-2-yl)phenyl)-3-cyclopropylurea], the IC50 (in assay [1]; at mTOR) was less than 100 nM throughout.

For `CCNC(=O)Nc1ccc(-c2nc3c(c(N4CCOC[C@@H]4C)n2)CS(=O)(=O)C3)cc1` [Example 11, (S)-1-ethyl-3-(4-(4-(3-methylmorpholino)-6,6-dioxido-5,7-dihydrothieno[3,4-d]pyrimidin-2-yl)phenyl)urea], the IC50 in assay [1] is less than 100 nM; in assay [2], greater than 10000 nM.

For `CC1c2nc(-c3ccc(NC(=O)NC4CC4)cc3)nc(N3CCOC[C@@H]3C)c2CS1(=O)=O` (stereo partly drawn) [Example 7, 1-cyclopropyl-3-(4-(7-methyl-4-((S)-3-methylmorpholino)-6,6-dioxido-5,7-dihydrothieno[3,4-d]pyrimidin-2-yl)phenyl)urea], the IC50 (in assay [1]; against mTOR) was less than 100 nM throughout.

On to `CC(C)NC(=O)Nc1ccc(-c2nc3c(c(N4CCOC[C@@H]4C)n2)CS(=O)(=O)C3)cc1` [Example 25, (S)-1-isopropyl-3-(4-(4-(3-methylmorpholino)-6,6-dioxido-5,7-dihydrothieno[3,4-d]pyrimidin-2-yl)phenyl)urea], for which the 50% inhibitory concentration (IC50) (in assay [1]; on mTOR) was 100 to 1000 nM each time.

The molecule `C[C@@H]1CN(c2nc(-c3ccc(NC(=O)NC4CC4)cc3)nc3c2CS(=O)(=O)C3)C[C@H](C)O1` [Example 19, 1-cyclopropyl-3-(4-(4-((2S,6R)-2,6-dimethylmorpholino)-6,6-dioxido-5,7-dihydrothieno[3,4-d]pyrimidin-2-yl)phenyl)urea] yielded an IC50 against mTOR of 1000 to 10000 nM.

For `C[C@H]1COCCN1c1nc(-c2ccc(NC(=O)NCC(F)F)cc2)nc2c1CS(=O)(=O)C2` [Example 23, (S)-1-(2,2-difluoroethyl)-3-(4-(4-(3-methylmorpholino)-6,6-dioxido-5,7-dihydrothieno[3,4-d]pyrimidin-2-yl)phenyl)urea], the IC50 is 100 to 1000 nM in assay [1] and less than 100 nM on mTOR.

Turning to `O=C(NCC(F)F)Nc1ccc(-c2nc3c(c(N4CC5CCC(C4)O5)n2)CS(=O)(=O)C3)cc1` [Example 24, 1-(4-(4-(8-oxa-3-azabicyclo[3.2.1]octan-3-yl)-6,6-dioxido-5,7-dihydrothieno[3,4-d]pyrimidin-2-yl)phenyl)-3-(2,2-difluoroethyl)urea], the IC50 in assay [1] was less than 100 nM; at mTOR, 100 to 1000 nM.

For the molecule `C[C@H]1COCCN1c1nc(-c2ccc(NC(=O)NC3CC3)cc2)nc2c1CS(=O)(=O)C2(C)C` [Example 30, (S)-1-cyclopropyl-3-(4-(7,7-dimethyl-4-(3-methylmorpholino)-6,6-dioxido-5,7-dihydrothieno[3,4-d]pyrimidin-2-yl)phenyl)urea], the IC50 (in assay [1]; at mTOR) was less than 100 nM throughout.

As a reminder, the IC50 is the midpoint of a concentration-inhibition curve.

The record behind these values is US9242993B2, “Morpholino substituted bicyclic pyrimidine urea or carbamate derivatives as mTOR inhibitors” (CELLZOME LIMITED, priority 2011, dated 2016).
